This note sets out measurements from US11135153B2, “High penetration composition and uses thereof” (Techfields Pharma Co., Ltd., priority 2006, dated 2021).

Data set [1] is described as follows: In vitro penetration rate through human skin in modified Franz cells. In kind it is in vitro ADME. The conditions noted are these: isolated human skin 360-400 μm, 2 mL, 20% in 0.2 M phosphate buffer pH 7.4. On the procedure:
The penetration rates of HPPs of 4-aminophenol derivatives and their parent drugs through human skin were measured in vitro by modified Franz cells. […] The human skin tissue (360-400 μm thick) that separated the top and the receptor chambers was isolated from the anterior or posterior thigh areas.
The amount of the tested compound penetrating the skin was determined by high-performance liquid chromatography (HPLC) method.
The lowest detectable apparent flux values in this method was 1 μg/cm^2/h, the parent drugs tested (e.g. acetaminophen and acetaminosalol) had […], and the corresponding HPPs had higher apparent flux value.

Data set [2] is described as follows: Aqueous solubility of HPPs and parent drugs. In kind it is physicochemical.
The next data set in a line: in vivo. Particulars: mouse.
The nature of data set [3]: Plasma levels of parent compounds after transdermal administration to hairless mice. The data set is classed as in vivo. The conditions noted are these: transdermal on 10 cm^2 back skin; for Plasma concentration of the parent compound (peak plasma level): 20% solution or suspension in 1 ml 70% ethanol; for t (time to peak plasma level of the parent compound): 20% in 1 ml 70% ethanol. How it is done: Test compounds (20% solution or suspension of HPPs or parent drugs in 1 ml of 70% ethanol) were administered transdermally to 10 cm^2 skin on the backs of hairless mice. The plasma levels of the parent compounds were determined by HPLC.

The test system of the next data set is rats. The data set is described as follows: Antipyretic activity in rats given E. coli suspension as pyrogen. The data set is classed as in vivo. The conditions noted are these: 100 mg/kg transdermally. On the procedure:
Rats received a sterilized E. coli suspension as a pyrogen. The control group was group A. 2 hours later, N-acetyl-p-aminophenyl dimethylaminobutyrate.HCl (100 mg/kg, B) and 4-acetamidophenyl 2((4-(dimethylamino)butanoyl)oxy)benzoate.HCl, (100 mg/kg, C) were administered transdermally respectively. The body temperature of rats was taken at 90 min. intervals before and after the administration of the test compounds.

A further data set concerns mice. The data set is described as follows: Analgesic activity, acetic acid writhing inhibition. The conditions noted are these: 100 mg/kg transdermally, versus control group. In kind it is in vivo. On the procedure: Acetic acid solution was administered intraperitoneally to a group of mice (6 mice every group) 120 minutes after a test compound was administered to the mice at the dosage specified in the tables below. The prodrug compounds were administered either transdermally or orally. N-acetyl-p-aminophenyl dimethylaminobutyrate.HCl (100 mg/kg, B) and 4-acetamidophenyl 2((4-(dimethylamino)butanoyl)oxy)benzoate.HCl, (100 mg/kg, C) were administered transdermally. The number of writhings that occurred when mice were administered the acetic acid solution were counted, and the rate of inhibition based on the control group which was not pretreated with any test compounds was calculated. […] Group A was the control group.
Background: In writhing tests, fewer writhes than in controls are read as antinociception.

The nature of data set [4]: In vivo transportation: amounts in organs and tissue of rats after application to back skin. The conditions noted are these: 6 hours after 20% in 1 mL 50% ethanol on 10 cm^2 back skin. How it is done:
N-Acetyl-p-aminophenyl dimethylaminobutyrate.HCl (20% in 1 mL of 50% ethanol) was applied to about 10 cm^2 skin on the backs of rats (˜200 g). After 6 hours, the rats were terminated, and methanol (5 mL) was added to 1 g of tissue on the back of rat (under the skin), 1 ml of blood, 1 g of liver, 1 g of kidney, and 1 g of brain respectively (the tissue, liver, kidney or brain was washed with pH 7.2 buffer for three times) and the mixtures were homogenized. The samples were then centrifuged for 5 min and analyzed using HPLC.

[5] abbreviates: water (aqueous), read-out: Solubility.

Where two headings read alike, the source gives them in different places.

One may read the solubility as the concentration that dissolves in the medium under given conditions. Broadly, the LD50 is the dose at which mortality reaches 50%. A low value points to greater toxicity. As for `CC(=O)Nc1ccc(O)cc1` [acetaminophen, N-Acetyl-p-aminophenol, reference compound], the “In vitro Penetration rate (apparent flux)” value (“In vitro Penetration rate” below) in data set [1] is reported as 10 μg/cm^2/h. The solubility in data set [2] (setting [5]) is < 0.2 mg/mL. For the same compound, in “in vivo”, the LD50 was determined as 340 mg/kg. Further, in data set [3], the “Plasma concentration of the parent compound (peak plasma level)” value (“Plasma concentration” below) was found to be 100 ng/mL. Also, the “t (time to peak plasma level of the parent compound)” value in data set [3] (parent compound) is recorded as ~5 h.
Regarding `CC(=O)Nc1ccc(OC(=O)CCCN(C)C)cc1.Cl` [N-Acetyl-p-Aminophenyl Dimethylaminobutyrate.HCl], the “In vitro Penetration rate” value in data set [1] came to 1500 μg/cm^2/h. Further, in the data set on rats, the “body temperature, t = 0 min.” value was found to be 37.32 ± 0.06; the “body temperature, t = 90 min.” value is 36.61 ± 0.05; the “body temperature, t = 180 min.” value worked out at 36.50 ± 0.08; the “body temperature, t = 270 min.” value came out at 36.50 ± 0.07. Further, the solubility in data set [2] is >400 mg/mL. Also, the “Plasma concentration” value in data set [3] was determined as 30000 ng/mL. For the same compound, the “t (time to peak plasma level of the parent compound)” value in data set [3] (prodrug compound) is ~0.833 h. In addition, in the data set with mice, the “rate of writhings inhibition” value came out at 55%. Besides, in data set [4], the “N-acetyl-p-aminophenyl dimethylaminobutyrate detected in blood” value was found to be 10 ± 4 µg/g, the “N-acetyl-p-aminophenyl dimethylaminobutyrate detected in brain” value came to 3 ± 3 µg/g, the “N-acetyl-p-aminophenyl dimethylaminobutyrate detected in kidney” value stood at 6 ± 4 µg/g and the “N-acetyl-p-aminophenyl dimethylaminobutyrate detected in liver” value was found to be 7 ± 4 µg/g. Moreover, in data set [4], the “N-acetyl-p-aminophenyl dimethylaminobutyrate detected in under-skin tissue” value turned out to be 15 ± 8 µg/g, the “acetaminophen detected in blood” value was determined as 30 ± 8 µg/g, the “acetaminophen detected in brain” value worked out at 10 ± 8 µg/g and the “acetaminophen detected in kidney” value is 20 ± 10 µg/g. In addition, in data set [4], the “acetaminophen detected in liver” value amounted to 20 ± 10 µg/g and the “acetaminophen detected in under-skin tissue” value amounted to 60 ± 10 µg/g.
For the compound `CC(=O)Nc1ccc(OC(=O)c2ccccc2O)cc1` [acetaminosalol, 4-acetamidophenyl salicylate, reference compound], the “In vitro Penetration rate” value in data set [1] came to 10 μg/cm^2/h. Further, the solubility in data set [2] (setting [5]) was < 0.1 mg/mL. Further, the LD50 in the data set “in vivo” amounted to 550 mg/kg. Also, in data set [3], the “Plasma concentration” value was determined as 100 ng/mL. In addition, the “t (time to peak plasma level of the parent compound)” value in data set [3] (parent compound) is reported as ~5 h.
On to `CC(=O)Nc1ccc(OC(=O)c2ccccc2OC(=O)CCCN(C)C)cc1.Cl` [4-acetamidophenyl 2((4-(dimethylamino)butanoyl)oxy)benzoate.HCl], for which the “In vitro Penetration rate” value in data set [1] was found to be 1800 μg/cm^2/h. In the data set with rats, the “body temperature, t = 0 min.” value is 37.27 ± 0.06; the “body temperature, t = 90 min.” value is on record as 36.63 ± 0.05; the “body temperature, t = 180 min.” value is 36.52 ± 0.08; the “body temperature, t = 270 min.” value is listed as 36.50 ± 0.07. Moreover, the solubility in data set [2] was >400 mg/mL. The “Plasma concentration” value in data set [3] was determined as 30000 ng/mL. Further, the “t (time to peak plasma level of the parent compound)” value in data set [3] (prodrug compound) was ~0.833 h. In the data set on mice, the “rate of writhings inhibition” value came out at 55%.
